According to US12221439B2, “Tetrahydropyridopyrimidine derivatives as AhR modulators” (JAGUAHR THERAPEUTICS PTE LTD, priority 2018, dated 2025):

How the values were obtained:
[1] = target: AhR (Homo sapiens (Human), UniProt P35869); assay: AhR antagonism in U937 cells (Promega P450-Glo assay); assay type: cell-based; details: inhibition of agonist (KYNA) response, CYP1A1 activity readout (Luciferin-CEE), 24 hrs, arithmetic mean of pIC50
Experimental: Examples were tested in selected biological assays two or more times. Data are reported as the arithmetic mean of the pIC50 (−log10IC50) values, where IC50 is defined as the concentration of compound producing a 50% inhibition of the agonist (KYNA) response.
In Vitro Assay 1: AhR Antagonism in U937 Cells (Promega P450-Glo™ Assay)
AhR antagonism was assessed in U937 cells (myeloid lineage cell line derived from a human histiocytic lymphoma).). Ligand binds the AhR in the cytoplasm, and the AhR-ligand complex translocates to the nucleus and forms a heterodimer with AhR nuclear translocator (Arnt). This complex binds the xenobiotic response element (XRE) in the 5′ upstream region of the CYP1A1 promoter, enhancing CYP1A1 expression. CYP1A1 activity is subsequently determined by assessing the conversion of Luciferin-CEE to luciferin, which in turn reacts with luciferase to produce light. The amount of light produced is directly proportional to cytochrome P450 activity. U937 cells in Ultraculture serum free media (Lonza) were plated at 100,000 cells per well in a round bottom 96 well tissue culture plate. Seven concentrations of test compound (final [DMSO] 1%) were added and incubated for 10 minutes before the addition of […] KYNA. The plates were then placed in an incubator at 37° C., >85% humidity, 5% CO2 for 24 hrs. After aspiration of the supernatant the CYP1A1 substrate Luciferin-CEE ([Final] 83 μM) was added and incubated for 3 hrs before the reaction was stopped by adding luciferin detection reagent and luminescence was read after 20 minutes.

[2] = target: CYP1A1 (Homo sapiens (Human), UniProt P04798); assay: CYP1A1 inhibition assay (Promega P450-Glo, Cypex bactosomes); assay type: biochemical; details: direct CYP1A1 inhibition, Luciferin-CEE 30 μM, NADPH, 37° C., arithmetic mean of pIC50
Experimental: In Vitro Assay 22: […] Inhibition Assay
The direct CYP1A1 inhibitory activity of test compounds was also assessed using the Promega P450-Glo™ assay system. Seven concentrations of test compound were added to a ½ area white 96 well plate. Cypex […]. bactosomes ([final] 0.5 pmol) and CYPA substrate Luciferin-CEE ([final] 30 μM) were prepared in 0.1M potassium phosphate buffer and incubated with test compounds at 37° C. for 5 minutes. 0.2m NADPH was then added to the plates and incubated at 37° C., for 10 minutes. The reaction was stopped by adding luciferin detection reagent and luminescence was read after 20 minutes.

Sequence of CYP1A1 (P04798 whole entry): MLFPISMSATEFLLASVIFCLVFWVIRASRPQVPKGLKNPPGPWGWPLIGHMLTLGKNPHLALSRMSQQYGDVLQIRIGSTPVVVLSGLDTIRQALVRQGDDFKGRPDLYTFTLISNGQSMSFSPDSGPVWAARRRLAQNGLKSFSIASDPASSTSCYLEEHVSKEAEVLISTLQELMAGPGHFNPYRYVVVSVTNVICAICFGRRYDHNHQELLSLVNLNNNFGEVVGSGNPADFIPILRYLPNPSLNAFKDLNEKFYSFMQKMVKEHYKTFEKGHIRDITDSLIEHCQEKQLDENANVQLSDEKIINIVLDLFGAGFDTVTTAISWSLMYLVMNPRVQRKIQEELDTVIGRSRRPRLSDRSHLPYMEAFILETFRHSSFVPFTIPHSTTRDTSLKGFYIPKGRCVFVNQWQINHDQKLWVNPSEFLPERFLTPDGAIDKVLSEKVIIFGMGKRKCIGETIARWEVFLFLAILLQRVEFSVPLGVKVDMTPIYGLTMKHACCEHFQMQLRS
Sequence of AhR (P35869 11-848): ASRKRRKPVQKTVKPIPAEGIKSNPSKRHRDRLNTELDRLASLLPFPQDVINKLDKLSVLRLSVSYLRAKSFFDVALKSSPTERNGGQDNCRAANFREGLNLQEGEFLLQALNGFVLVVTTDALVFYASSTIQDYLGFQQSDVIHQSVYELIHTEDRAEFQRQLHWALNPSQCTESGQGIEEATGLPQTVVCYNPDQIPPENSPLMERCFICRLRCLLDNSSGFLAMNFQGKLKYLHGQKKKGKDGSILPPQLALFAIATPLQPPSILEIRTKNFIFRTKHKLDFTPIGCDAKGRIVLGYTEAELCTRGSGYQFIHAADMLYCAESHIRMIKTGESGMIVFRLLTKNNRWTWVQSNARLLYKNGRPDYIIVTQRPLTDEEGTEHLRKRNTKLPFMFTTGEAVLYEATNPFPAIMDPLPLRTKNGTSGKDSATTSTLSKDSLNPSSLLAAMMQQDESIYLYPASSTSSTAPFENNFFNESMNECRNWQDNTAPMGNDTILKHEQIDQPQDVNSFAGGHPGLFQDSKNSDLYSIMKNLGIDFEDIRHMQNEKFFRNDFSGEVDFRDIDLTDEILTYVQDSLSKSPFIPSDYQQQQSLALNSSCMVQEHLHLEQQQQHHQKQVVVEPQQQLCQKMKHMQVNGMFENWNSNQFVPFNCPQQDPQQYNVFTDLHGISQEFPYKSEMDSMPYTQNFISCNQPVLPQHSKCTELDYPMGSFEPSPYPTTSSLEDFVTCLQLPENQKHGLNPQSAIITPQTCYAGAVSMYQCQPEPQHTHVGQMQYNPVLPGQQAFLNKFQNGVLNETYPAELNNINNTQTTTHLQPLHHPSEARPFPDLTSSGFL

| IC50 [1] [nM] | cyp1A1 pIC50 [2] | IC50 [2] [nM] | SMILES |
| --- | --- | --- | --- |
| 1.58 | 6.00 |  | CC(=O)N1CCc2c(nc(-c3cncc(F)c3)nc2NCCc2c[nH]c3ccccc23)C1 [Example 1, 1-(4-((2-(1H-indol-3-yl)ethyl)amino)-2-(5-fluoropyridin-3-yl)-5,8-dihydropyrido [3,4-d]pyrimidin-7(6H)-yl)ethan-1-one] |
| 1.26 | 6.20 |  | CS(=O)(=O)N1CCc2c(nc(-c3cncc(F)c3)nc2NCCc2c[nH]c3ccccc23)C1 [Example 2, N-(2-(1H-indol-3-yl)ethyl)-2-(5-fluoropyridin-3-yl)-7-(methylsulfonyl)-5,6,7,8-tetrahydropyrido [3,4-d]pyrimidin-4-amine] |
| 6.31 |  | 794 | N#CCN1CCc2c(nc(-c3cncc(F)c3)nc2NCCc2c[nH]c3ccccc23)C1 [Example 4, 2-(4-((2-(1H-indol-3-yl)ethyl)amino)-2-(5-fluoropyridin-3-yl)-5,8-dihydropyrido[3,4-d]pyrimidin-7(6H)-yl)acetonitrile] |
| 10 | 6.40 |  | CC(C)N1CCc2c(nc(-c3cncc(F)c3)nc2NCCc2c[nH]c3ccccc23)C1 [Example 5, N-(2-(1H-indol-3-yl)ethyl)-2-(5-fluoropyridin-3-yl)-7-isopropyl-5,6,7,8-tetrahydropyrido[3,4-d]pyrimidin-4-amine] |
| 5.01 | 6.50 |  | CN1CCc2c(nc(-c3cncc(F)c3)nc2NCCc2c[nH]c3ccccc23)C1 [Example 6, N-(2-(1H-indol-3-yl)ethyl)-2-(5-fluoropyridin-3-yl)-7-methyl-5,6,7,8-tetrahydropyrido[3,4-d]pyrimidin-4-amine] |
| 10 | 6.70 |  | c1cncc(-c2nc3c(c(NCCc4c[nH]c5ccccc45)n2)CNCC3)c1 [Example 7, N-(2-(1H-indol-3-yl)ethyl)-2-(pyridin-3-yl)-5,6,7,8-tetrahydropyrido [4,3-d]pyrimidin-4-amine] |
| 15.8 | 7.00 |  | Fc1cncc(-c2nc3c(c(NCCc4c[nH]c5ccccc45)n2)CCNC3)c1 [Example 8, N-(2-(1H-indol-3-yl)ethyl)-2-(5-fluoropyridin-3-yl)-5,6,7,8-tetrahydropyrido[3,4-d]pyrimidin-4-amine] |
| 20 | 6.60 |  | c1cncc(-c2nc3c(c(NCCc4c[nH]c5ccccc45)n2)CCNC3)c1 [Example 9, N-(2-(1H-indol-3-yl)ethyl)-2-(pyridin-3-yl)-5,6,7,8-tetrahydro pyrido[3,4-d]pyrimidin-4-amine] |
| 12.6 | 6.80 |  | c1cncc(-c2nc3c(c(NCCc4c[nH]c5ccccc45)n2)CNC3)c1 [Example 10, N-(2-(1H-indol-3-yl)ethyl)-2-(pyridin-3-yl)-6,7-dihydro-5H-pyrrolo[3,4-d]pyrimidin-4-amine] |
| 3.16 | 6.40 |  | Fc1cncc(-c2nc3c(c(OCCc4c[nH]c5ccccc45)n2)CCNC3)c1 [Example 11, 4-(2-(1H-indol-3-yl)ethoxy)-2-(5-fluoropyridin-3-yl)-5,6,7,8-tetrahydropyrido[3,4-d]pyrimidine] |
| 1 | 6.10 |  | CN(C)S(=O)(=O)N1CCc2c(nc(-c3cncc(F)c3)nc2NCCc2c[nH]c3ccccc23)C1 [Example 12, 4-((2-(1H-indol-3-yl)ethyl)amino)-2-(5-fluoropyridin-3-yl)-N,N-dimethyl-5,8-dihydropyrido[3,4-d]pyrimidine-7(6H)-sulfonamide] |
| 3.16 | 5.70 |  | CN(C)C(=O)N1CCc2c(nc(-c3cncc(F)c3)nc2NCCc2c[nH]c3ccccc23)C1 [Example 13, 4-((2-(1H-indol-3-yl)ethyl)amino)-2-(5-fluoropyridin-3-yl)-N,N-dimethyl-5,8-dihydropyrido[3,4-d]pyrimidine-7(6H)-carboxamide] |
| 1.26 | 6.10 |  | CNC(=O)N1CCc2c(nc(-c3cncc(F)c3)nc2NCCc2c[nH]c3ccccc23)C1 [Example 14, 4-((2-(1H-indol-3-yl)ethyl)amino)-2-(5-fluoropyridin-3-yl)-N-methyl-5,8-dihydropyrido[3,4-d]pyrimidine-7(6H)-carboxamide] |
| 2 | 6.00 |  | Cn1nccc1C(=O)N1CCc2c(nc(-c3cncc(F)c3)nc2NCCc2c[nH]c3ccccc23)C1 [Example 15, (4-((2-(1H-indol-3-yl)ethyl)amino)-2-(5-fluoropyridin-3-yl)-5,8-dihydropyrido[3,4-d]pyrimidin-7(6H)-yl)(1-methyl-1H-pyrazol-5-yl)methanone] |
| 6.31 |  | 100 | NCC(=O)N1CCc2c(nc(-c3cncc(F)c3)nc2NCCc2c[nH]c3ccccc23)C1 [Example 16, 1-(4-((2-(1H-indol-3-yl)ethyl)amino)-2-(5-fluoropyridin-3-yl)-5,8-dihydropyrido[3,4-d]pyrimidin-7(6H)-yl)-2-aminoethan-1-one] |
| 25.1 | 6.20 |  | Fc1cncc(-c2nc3c(c(NCCc4c[nH]c5ccccc45)n2)CCNCC3)c1 [Example 17a, N-(2-(1H-indol-3-yl)ethyl)-2-(5-fluoropyridin-3-yl)-6,7,8,9-tetrahydro-5H-pyrimido[4,5-d]azepin-4-amine] |
| 15.8 | 6.10 |  | CCN1CCc2nc(-c3cncc(F)c3)nc(NCCc3c[nH]c4ccccc34)c2CC1 [Example 17b, N-(2-(1H-indol-3-yl)ethyl)-7-ethyl-2-(5-fluoropyridin-3-yl)-6,7,8,9-tetrahydro-5H-pyrimido[4,5-d]azepin-4-amine] |
| 5.01 | 6.20 |  | CC1(C)c2nc(-c3cncc(F)c3)nc(NCCc3c[nH]c4ccccc34)c2CCN1Cc1ccccc1 [Example 18a, N-(2-(1H-indol-3-yl)ethyl)-7-benzyl-2-(5-fluoropyridin-3-yl)-8,8-dimethyl-5,6,7,8-tetrahydropyrido[3,4-d]pyrimidin-4-amine] |
| 20 | 5.90 |  | CC1(C)NCCc2c(NCCc3c[nH]c4ccccc34)nc(-c3cncc(F)c3)nc21 [Example 18b, N-(2-(1H-indol-3-yl)ethyl)-2-(5-fluoropyridin-3-yl)-8,8-dimethyl-5,6,7,8-tetrahydropyrido[3,4-d]pyrimidin-4-amine] |
| 3160 | 5.10 |  | Fc1cncc(-c2nc3c(c(NCCc4nc5ccccc5[nH]4)n2)CCNC3)c1 [Example 19, N-(2-(1H-benzo[d]imidazol-2-yl)ethyl)-2-(5-fluoropyridin-3-yl)-5,6,7,8-tetrahydropyrido[3,4-d]pyrimidin-4-amine] |
| 25.1 | 6.40 |  | Cc1cncc(-c2nc3c(c(NCCc4c[nH]c5ccccc45)n2)CCNC3)c1 [Example 20, N-(2-(1H-indol-3-yl)ethyl)-2-(5-methylpyridin-3-yl)-5,6,7,8-tetrahydropyrido[3,4-d]pyrimidin-4-amine] |
| 20 | 6.40 |  | Fc1cncc(-c2nc3c(c(NCCc4c[nH]c5ccccc45)n2)CNCC3)c1 [Example 21, N-(2-(1H-indol-3-yl)ethyl)-2-(5-fluoropyridin-3-yl)-5,6,7,8-tetrahydropyrido[4,3-d]pyrimidin-4-amine] |
| 10 |  | 316 | Clc1cncc(-c2nc3c(c(NCCc4c[nH]c5ccccc45)n2)CCNC3)c1 [Example 22, N-(2-(1H-indol-3-yl)ethyl)-2-(5-chloropyridin-3-yl)-5,6,7,8-tetrahydropyrido[3,4-d]pyrimidin-4-amine] |
| 10 | 6.70 |  | N#Cc1cncc(-c2nc3c(c(NCCc4c[nH]c5ccccc45)n2)CCNC3)c1 [Example 23, 5-(4-((2-(1H-indol-3-yl)ethyl)amino)-5,6,7,8-tetrahydropyrido[3,4-d]pyrimidin-2-yl)nicotinonitrile] |
| 12.6 | 6.60 |  | Fc1cncc(-c2nc3c(c(NCCc4c[nH]c5ccccc45)n2)CNC3)c1 [Example 24, N-(2-(1H-indol-3-yl)ethyl)-2-(5-fluoropyridin-3-yl)-6,7-dihydro-5H-pyrrolo[3,4-d]pyrimidin-4-amine] |
| 5.01 | 6.20 |  | CS(=O)(=O)N1Cc2nc(-c3cncc(F)c3)nc(NCCc3c[nH]c4ccccc34)c2C1 [Example 25, N-(2-(1H-indol-3-yl)ethyl)-2-(5-fluoropyridin-3-yl)-6-(methylsulfonyl)-6,7-dihydro-5H-pyrrolo[3,4-d]pyrimidin-4-amine] |
